The values below are quoted from earlier work in the PKSmart pharmacokinetics tables (Seal et al. 2025).

A short description of the first data set: not given per row; by the article one of three: Lombardo et al. 2013, J Clin Pharmacol 53:178, doi 10.1177/0091270012440282; 'New Drugs at FDA', novel drug approvals for 2021 and 2022 (the article's reference 43); Yap, Li, Chen 2006, J Mol Graph Model 24:383, doi 10.1016. The note with it: human; in vivo.
Broadly, the clearance is the rate of elimination divided by the concentration. `OC[C@H]1O[C@@H](n2cnc3c2N=CNC[C@@H]3O)CC1O` (stereo partly specified): the clearance was 1.68 mL/min/kg.
As for `C[C@@H]1COc2c(N3CCN(C)CC3)c(F)cc3c(=O)c(C(=O)O)cn1c23`, the clearance is 2.58 mL/min/kg.
On to `CCC1=C(C)CN(C(=O)NCCc2ccc(S(=O)(=O)NC(=O)NC3CCC(C)CC3)cc2)C1=O` (stereo unspecified), for which the clearance was 0.76 mL/min/kg.
In the case of `CC(C)(C)NC[C@@H](O)COc1nsnc1N1CCOCC1`, the clearance was 8.1 mL/min/kg.
For the molecule `CCN1CCC[C@@H]1CNC(=O)c1cc(S(=O)(=O)CC)c(N)cc1OC`, the clearance was 7.8 mL/min/kg.
In the case of `OCCOCCN1CCN(C2=Nc3ccccc3Sc3ccccc32)CC1`, the clearance is 19.1 mL/min/kg.
In the case of `CCOc1cc(N)c(Cl)cc1C(=O)NC[C@H]1CN(Cc2ccc(F)cc2)CCO1`, the clearance is 16.2 mL/min/kg.
As for `CN[C@@]1(c2ccccc2Cl)CCCCC1=O`, the clearance is 16.3 mL/min/kg.
Take `CC(C(=O)O)c1ccc2oc(-c3ccc(Cl)cc3)nc2c1` (stereo unspecified): the clearance was 0.07 mL/min/kg.
In general, half-life refers to the time in which the quantity being followed falls by half. Regarding `CC12CCC(=O)C=C1C1CC1C1C2CCC2(C)C1C1CC1C21CCC(=O)O1` (stereo unspecified), the half-life is 34 h.
Turning to `CN1C(=O)NC(=O)[C@@](C)(C2=CCCCC2)C1=O`, the clearance was 3.6 mL/min/kg.
`CC(=O)C1CC[C@H]2[C@@H]3CC[C@H]4C[C@](C)(O)CC[C@]4(C)[C@H]3CC[C@]12C` (stereo partly specified): the half-life is 34 h.
Take `CN(C/C=C/C#CC(C)(C)C)Cc1cccc2ccccc12`: the clearance was 17.9 mL/min/kg.
Regarding `COCCCOc1ccnc(C[S@@+](O)c2nc3ccccc3[n-]2)c1C`, the clearance is 6 mL/min/kg.
As to `CCN1CC(C(=O)O)C(=O)c2ccc(-c3ccncc3)cc21` (stereo unspecified), the clearance is 2 mL/min/kg.
The Vd is the apparent volume that relates the amount in the body to the concentration in plasma or blood. For the molecule `O=C(CCC(C(=O)O)N1CCN(C(CCC(=O)NCC(O)CO)C(=O)O)Cc2cccc(n2)CN(C(CCC(=O)NCC(O)CO)C(=O)O)CC1)NCC(O)CO` (stereo unspecified), the Vd is 0.22 L/kg, the clearance was 1.67 mL/min/kg and the half-life was 1.5 h.
On to `O=C1CN2Cc3c(ccc(Cl)c3Cl)N=C2N1`, for which the clearance was 2.14 mL/min/kg.
As to `N=C=N`, the clearance was 20 mL/min/kg.
With `C=CC[C@]1([C@H](C)C#CCC)C(=O)NC(=O)N(C)C1=O`, the clearance was 13.3 mL/min/kg.
Regarding `CCCCCCCN(CC)CCC[C@@H](O)c1ccc(NS(C)(=O)=O)cc1`, the clearance was 29 mL/min/kg.
As to `CC(C)Oc1ccc(-c2nn([C@@H](C)c3oc4ccc(F)cc4c(=O)c3-c3cccc(F)c3)c3ncnc(N)c23)cc1F`, the Vd was 5.2 L/kg, the clearance is 4.31 mL/min/kg and the half-life was 91 h.
`Cc1ccc2nc(N)[nH]c(=O)c2c1Sc1ccncc1`: the clearance was 2.36 mL/min/kg.
Consider `CNCC[C@H](Oc1ccccc1C)c1ccccc1`, for which the clearance was 3.63 mL/min/kg.
Consider `CO[C@]1(NC(=O)CSCC#N)C(=O)N2C(C(=O)O)=C(CSc3nnnn3C)CS[C@H]21`, for which the clearance was 1.84 mL/min/kg.
`Cc1cccc(C)c1OC[C@@H](C)N`: the clearance is 6.3 mL/min/kg.
`C[C@@](Cc1ccc(O)c(O)c1)(NN)C(=O)O`: the clearance was 18 mL/min/kg.
`C1=C/COCc2cc(ccc2OCCN2CCCC2)Nc2nccc(n2)-c2cccc(c2)COC/1`: the Vd is 3.82 L/kg, the clearance was 0.58 mL/min/kg and the half-life is 27.7 h.
In the case of `O[P+](O)(O)C(Cl)(Cl)[P+](O)(O)O`, the clearance was 2.2 mL/min/kg.
Consider `CCOC(=O)C(CCc1ccccc1)NC(C)C(=O)N1Cc2ccccc2CC1C(=O)O` (stereo unspecified), for which the clearance is 26.4 mL/min/kg.
Turning to `Cc1ccccc1OC[C@@H](O)CNCCOc1ccc(C(N)=O)cc1`, the clearance was 10.8 mL/min/kg.
In the case of `CC(=O)N(C[C@H](O)CO)c1c(I)c(C(=O)NCCO)c(I)c(C(=O)NC[C@H](O)CO)c1I`, the clearance is 1.44 mL/min/kg.
For the molecule `Oc1ccc2c3c1O[C@@H]1[C@@H](O)CC[C@]4(O)[C@H](C2)N(CC2CCC2)CC[C@@]314`, the clearance is 29.7 mL/min/kg.
On to `C[C@@H](CN(C)C)CN1c2ccccc2CCc2ccccc21`, for which the clearance was 15.9 mL/min/kg.
On to `CCCCCOC(=O)Nc1nc(=O)n([C@@H]2O[C@H](C)[C@@H](O)[C@H]2O)cc1F`, for which the clearance is 59.7 mL/min/kg.
With `CS(=O)(=O)c1ccc([C@H](O)[C@@H](CO)NC(=O)C(Cl)Cl)cc1`, the clearance is 2.62 mL/min/kg.
As to `Cc1c(OCC(F)(F)F)ccnc1C[S@@+](O)c1nc2ccccc2[n-]1`, the clearance was 6.23 mL/min/kg.
As for `OCC(O)CO`, the clearance was 3.55 mL/min/kg.
For the molecule `CNS(=O)(=O)CCC1CCC2[N]CC(C3CCN(C)CC3)C2C1` (stereo unspecified), the clearance is 6.35 mL/min/kg.
As to `Oc1ccc2c(c1)C13CCCC[C@@]1(O)[C@H](C2)N(CC1CCC1)CC3`, the clearance was 40 mL/min/kg.
As for `Nc1nc(=O)c2c([nH]1)N[C@@H]1O[C@@H]3COP(=O)(O)O[C@@H]3C(O)(O)[C@@H]1N2`, the Vd is 0.3 L/kg, the clearance was 3.02 mL/min/kg and the half-life was 1.45 h.

The same data set, now with this note: human; plasma.
The term fraction unbound denotes the share of the substance not bound to proteins or other matrix. For `CS(=O)(=O)c1ccc(Oc2cc(F)cc(C#N)c2)c2c1[C@H](O)[C@H](F)[C@@H]2F`, the fraction unbound was 0.55.
For the molecule `CN1CCC(COc2cnc(-c3cccc(Cn4nc(-c5cccc(C#N)c5)ccc4=O)c3)nc2)CC1`, the fraction unbound was 0.02.
Turning to `COc1ccc(-n2nccn2)c(C(=O)N2CCC[C@@]2(C)c2nc3c(C)c(Cl)ccc3[nH]2)c1`, the fraction unbound was 0.01.
For `COC(=O)Nc1c(N)nc(-c2nn(Cc3ccccc3F)c3ncc(F)cc23)nc1N`, the fraction unbound is 0.02.
With `NC(=O)c1ccc2c(c1O)[C@]13CCN(CC4CC4)[C@H](C2)[C@]1(O)CCC(=O)C3`, the fraction unbound is 0.72.
As to `CCN1CCN(c2ccc(Nc3cc(N(C)C(=O)Nc4c(Cl)c(OC)cc(OC)c4Cl)ncn3)cc2)CC1`, the fraction unbound was 0.03.
Turning to `CC(C)Nc1nc2cc(Cl)c(Cl)cc2n1[C@H]1O[C@@H](CO)[C@H](O)[C@@H]1O`, the fraction unbound was 0.02.
For the molecule `C=CC(=O)Nc1cc(Nc2ncc(C(=O)OC(C)C)c(-c3cn(C)c4ccccc34)n2)c(OC)cc1N(C)CCN(C)C`, the fraction unbound was 0.01.
For `CC12CCC(=O)C=C1C1CC1C1C2CCC2(C)C1C1CC1C21CCC(=O)O1` (stereo unspecified), the fraction unbound is 0.04.
Regarding `CC(=O)C1CC[C@H]2[C@@H]3CC[C@H]4C[C@](C)(O)CC[C@]4(C)[C@H]3CC[C@]12C` (stereo partly specified), the fraction unbound is 0.01.
In the case of `O=C(CCC(C(=O)O)N1CCN(C(CCC(=O)NCC(O)CO)C(=O)O)Cc2cccc(n2)CN(C(CCC(=O)NCC(O)CO)C(=O)O)CC1)NCC(O)CO` (stereo unspecified), the fraction unbound is 0.98.
`CC(C)Oc1ccc(-c2nn([C@@H](C)c3oc4ccc(F)cc4c(=O)c3-c3cccc(F)c3)c3ncnc(N)c23)cc1F`: the fraction unbound was 0.01.
Take `C1=C/COCc2cc(ccc2OCCN2CCCC2)Nc2nccc(n2)-c2cccc(c2)COC/1`: the fraction unbound is 0.01.
